Laboratory results published in patent US5250679A, “Nonpeptidyl platelet aggregation inhibitors having specificity for the GPIIb III receptor” (Genentech, Inc., priority 1992, dated 1993).
pIC50: −log10 of the molar value. Where a name gives a salt, the structure may show the parent alone. Read-outs that look alike come from different tables or passages of the source.

Target: T1, GP IIb IIIa (Homo sapiens, UniProt P05106+P08514)
T1 construct: from tissue; host or cells: outdated human platelets
Assay: Fibrinogen-GP IIb IIIa Receptor ELISA Binding Assay (Fg/IIbIIIa)
Settings: for pIC50: Example 29, Cmpd # 1-105, read-out: IC50 Fg/IIbI; for IC50: Examples 29 and 30, Cmpd # tables, read-out: IC50 (μM) Fg/IIbIIIa
Description: Briefly, microtiter plates are coated with fibrinogen (10 mg/ml) and then blocked with TACTS buffer containing 0.5% bovine serum albumin (BSA). […] After another wash a goat anti-mouse IgG conjugated to horseradish peroxidase is added. […] The reaction is stopped with 1N sulfuric acid and the absorbance at 492 nm is recorded. […] Outdated human platelets are washed 3 times with 10 mM tris-HCl, 150 mM NaCl (TBS), 1 mM EDTA, pH 7.5, and centrifuged at 2000×g to pellet cells. […] The supernatant fraction is collected and the supernatant is loaded onto a concanavalin-A column, previously equilibrated in TBS, 1 mM Ca2 Cl2, 0.1% Triton, 0.05% NaN3 and eluted with 0.2M a-methylmannoside. Fractions are pooled and loaded onto a heparin-agarose column. The flowthrough is collected and concentrated on an Amicon YM 30 filter to a volume of approximately 5-10 ml. The concentrate is then applied to an S-300 column (500 ml) and 6 ml fractions are collected. The GP IIb IIIa containing fractions are collected, pooled, and stored at -80° C. […] The precipitate is spun down in appropriate size bottles at 2000×g. The supernatant is decanted and the precipitate resuspended in 150 mM NaCl (approximately 50% of the original volume). […] The suspension is spun down and the precipitate is resuspended in Tris-saline in a minimal volume (approximately 5% of the original volume). Any remaining insoluble material is spun down at 2000 rpm in a Sorval type centrifuge and the fibrinogen supernatant is decanted and dialyzed overnight at 4° C. against Tris-saline. Characterization of the fibrinogen is by the Bradford protein assay, SDS-PAGE, and/or Western blotting using well known standard procedures. Briefly, 96 well plates are coated (Type Nunc 1 MaxisorpTM) with 10 mg/ml purified fibrinogen ([…]), and allowed to stand overnight at 4° C. […] The plates are again washed three times with PBS/Tween and then […] of sample in TNCNT is added. The mixture is incubated for 15 minutes at room temperature on a plate shaker. […] Fifty ml of this diluted GP IIb IIIa is then added to each well and incubated on a plate shaker at room temperature. After one hour, the plates are washed four times with PBS/Tween and 100 ml of a polyclonal or monoclonal antibody specific for GP IIIa such as AP3 (1 mg/ml) (See e.g. […] After a one hour incubation at room temperature on a plate shaker, the samples are washed 4 times with PBS/Tween. […] The color develops within about 3 to 20 minutes and the reaction is stopped with 100 ml 1M H2 SO4. The optical density at 492 nm vs 405 nm is recorded and IC50 values are determined.

T1 sequence (P08514 32-887 limits assumed): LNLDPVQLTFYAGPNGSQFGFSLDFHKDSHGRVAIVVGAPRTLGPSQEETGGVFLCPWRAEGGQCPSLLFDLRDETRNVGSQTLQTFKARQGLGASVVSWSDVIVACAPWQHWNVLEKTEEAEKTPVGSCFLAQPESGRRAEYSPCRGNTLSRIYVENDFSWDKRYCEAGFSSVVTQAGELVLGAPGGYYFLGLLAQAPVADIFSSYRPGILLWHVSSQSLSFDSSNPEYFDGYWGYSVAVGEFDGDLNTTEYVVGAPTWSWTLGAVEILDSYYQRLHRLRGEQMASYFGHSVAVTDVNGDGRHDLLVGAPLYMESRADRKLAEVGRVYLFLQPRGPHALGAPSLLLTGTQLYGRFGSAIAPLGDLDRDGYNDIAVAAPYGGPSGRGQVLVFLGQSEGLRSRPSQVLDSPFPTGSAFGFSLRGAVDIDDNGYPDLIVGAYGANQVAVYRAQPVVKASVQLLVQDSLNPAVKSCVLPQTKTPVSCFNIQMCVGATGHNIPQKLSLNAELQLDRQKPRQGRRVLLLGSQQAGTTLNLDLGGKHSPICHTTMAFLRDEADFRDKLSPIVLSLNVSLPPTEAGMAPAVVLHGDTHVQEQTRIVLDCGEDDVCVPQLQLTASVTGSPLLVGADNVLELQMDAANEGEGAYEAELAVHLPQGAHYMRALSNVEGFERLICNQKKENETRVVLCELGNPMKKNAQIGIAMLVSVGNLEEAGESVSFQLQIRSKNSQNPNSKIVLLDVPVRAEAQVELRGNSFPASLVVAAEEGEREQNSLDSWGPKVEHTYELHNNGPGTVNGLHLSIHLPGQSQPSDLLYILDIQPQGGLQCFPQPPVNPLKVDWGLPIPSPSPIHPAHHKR
T1 sequence (P08514 891-1039 partner limits assumed): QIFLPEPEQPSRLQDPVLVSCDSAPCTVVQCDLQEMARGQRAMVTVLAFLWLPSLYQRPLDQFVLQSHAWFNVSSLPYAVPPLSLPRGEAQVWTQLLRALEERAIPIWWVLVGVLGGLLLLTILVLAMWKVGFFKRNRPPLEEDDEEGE
T1 sequence (P05106 27-788): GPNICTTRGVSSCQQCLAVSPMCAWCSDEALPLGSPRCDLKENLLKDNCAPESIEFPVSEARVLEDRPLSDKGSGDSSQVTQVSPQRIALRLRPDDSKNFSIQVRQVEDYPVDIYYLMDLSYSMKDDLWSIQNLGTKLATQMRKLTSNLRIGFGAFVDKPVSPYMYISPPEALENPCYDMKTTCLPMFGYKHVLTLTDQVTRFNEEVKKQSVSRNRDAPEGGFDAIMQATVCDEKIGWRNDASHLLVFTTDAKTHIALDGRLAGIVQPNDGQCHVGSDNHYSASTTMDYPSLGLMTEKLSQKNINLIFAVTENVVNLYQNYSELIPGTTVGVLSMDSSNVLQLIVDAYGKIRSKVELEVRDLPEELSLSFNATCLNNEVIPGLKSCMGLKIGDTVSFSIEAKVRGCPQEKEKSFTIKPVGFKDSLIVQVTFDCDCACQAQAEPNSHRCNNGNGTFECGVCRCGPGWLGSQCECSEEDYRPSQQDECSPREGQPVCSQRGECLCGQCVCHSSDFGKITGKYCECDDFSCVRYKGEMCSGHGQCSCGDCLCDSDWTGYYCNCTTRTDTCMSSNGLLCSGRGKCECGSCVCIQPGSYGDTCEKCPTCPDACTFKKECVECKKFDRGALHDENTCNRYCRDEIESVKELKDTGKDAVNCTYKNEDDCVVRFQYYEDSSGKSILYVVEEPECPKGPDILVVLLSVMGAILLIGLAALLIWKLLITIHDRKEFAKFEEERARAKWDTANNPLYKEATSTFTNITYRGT

SMILES	pIC50	IC50
NCCCC#Cc1ccc2c(c1)C(=O)N(CCC(=O)O)CC(=O)N2Cc1ccc(Cl)cc1 [Cmpd 58]	7.21	–
NCCCCCCCCOc1ccc2c(c1)C(=O)N(CCC(=O)O)CCC2 [Cmpd 151, 2-(2-carboxyethyl)-8-(8-aminooctyloxy)-2,3,4,5-tetrahydro-1H-2-benzazepin-1-one trifluoroacetate]	–	> 100 µM
CN1C(=O)CN(C(CC(=O)O)c2ccccc2)C(=O)c2cc(C#CCCCCN)ccc21 (stereo not shown) [Cmpd 53]	6.62	–
N=C(N)NCCCCC#Cc1ccc2c(c1)C(=O)N(CCC(=O)O)CC(=O)N2Cc1ccc([N+](=O)[O-])cc1 [Cmpd 88]	7.51	–
N=C(N)NCCCCC#Cc1cccc(C(=O)NCCC(=O)O)c1 [Cmpd 164]	–	3.4 µM
N=C(N)NCCCCCc1ccc2c(c1)C(=O)N(CCC(=O)O)CC(=O)N2Cc1ccc(F)cc1F [Cmpd 102]	7.80	–
COc1ccc(CN2C(=O)CN(CCC(=O)O)C(=O)c3cc(CCCCCNC(=N)N)ccc32)cc1 [Cmpd 79, 1-(p-methoxybenzyl)-4-(2-carboxyethyl)-7-(5-guanidinopentyl)-3,4-dihydro-1H-1,4-benzodiazepine-2,5-dione trifluoroacetate]	7.96	–
CC(=O)NCCCCCCc1ccc2c(c1)C(=O)N(CCC(=O)O)CC(=O)N2Cc1ccc(Cl)cc1 [Cmpd 105]	5.07	–
CN1C(=O)CN(CCC(=O)O)C(=O)c2cc(C#Cc3cccc(N)c3)ccc21 [Cmpd 49]	5.22	–
CC1C(=O)N(C)c2ccc(C#CCNC(=N)N)cc2C(=O)N1CCC(=O)O (stereo not shown) [Cmpd 10]	4.52	–
CN1C(=O)CN(CCC(=O)O)C(=O)c2cc(CCCN)ccc21 [Cmpd 3]	4.55	–
CN1C(=O)C(c2ccccc2)N(CCC(=O)O)C(=O)c2cc(CCCNC(=N)N)ccc21 (stereo not shown) [Cmpd 12]	5.64	–
NCCCCCCc1ccc2c(c1)C(=O)N(CCC(=O)O)CC(=O)N2Cc1cccc(Oc2ccccc2)c1 [Cmpd 94, 1-(m-phenoxybenzyl)-4-(2-carboxyethyl)-7-(6-aminohexyl)-3,4-dihydro-1H-1,4-benzodiazepine-2,5-dione trifluoroacetate]	8.05	–
CN1C(=O)C(c2ccccc2)N(CCC(=O)O)C(=O)c2cc(C#CCN)ccc21 (stereo not shown) [Cmpd 13]	< 3.00	–
COc1ccc(CN2C(=O)CN(CCC(=O)O)C(=O)c3cc(CCCCCN)ccc32)cc1 [Cmpd 80, 1-(p-methoxybenzyl)-4-(2-carboxyethyl)-7-(5-aminopentyl)-3,4-dihydro-1H-1,4-benzodiazepine-2,5-dione trifluoroacetate]	6.80	–
CN1C(=O)CN(CCC(=O)O)C(=O)c2cc3c(cc21)CCC(CCCN)C3 (stereo not shown) [Cmpd 141, 1-Methyl-4-(carboxyethyl)-8-(3-amino-1-propyl)-3,4,7,8,9,10-hexahydrohydro-1H-1,4-naphthodiazepine-2,5-dione]	–	1.8 µM
N=C(N)NCCCCCc1ccc2c(c1)C(=O)N(CCC(=O)O)CCC2 [Cmpd 156]	–	~100 µM
NCCCCCc1ccc2c(c1)C(=O)N(CCC(=O)O)CC(=O)N2Cc1ccc(C(F)(F)F)cc1 [Cmpd 96, 1-(p-trifluoromethylbenzyl)-4-(2-carboxyethyl)-7-(5-aminopentyl)-3,4-dihydro-1H-1,4-benzodiazepine-2,5-dione trifluoroacetate]	6.73	–
N=C(N)NCCCCC#Cc1ccc2c(c1)C(=O)N(CCC(=O)O)CC(=O)N2Cc1ccc(Cl)cc1 [Cmpd 61]	7.37	–
NCCCCCc1ccc2c(c1)C(=O)N(CCC(=O)O)CC(=O)N2Cc1ccc(Cl)cc1 [Cmpd 62]	6.75	–
NCCCc1ccc2c(c1)C(=O)N(CCC(=O)O)CC(=O)N2 [Cmpd 1]	5.08	–
CC1C(=O)N(C)c2ccc(C#CCCN)cc2C(=O)N1CCC(=O)O (stereo not shown) [Cmpd 25]	< 4.00	–
N=C(N)NCCCCCCc1ccc2c(c1)C(=O)N(CCC(=O)O)CC(=O)N2Cc1cccc(CCCCNC(=N)N)c1 [Cmpd 121]	–	0.02 µM

SMILES	pIC50	IC50
CN1C(=O)CN(CCC(=O)O)C(=O)c2cc(C#CCNC(=N)N)ccc21 [Cmpd 6]	6.77	–
NCCCCCc1ccc2c(c1)C(=O)N(CCC(=O)O)CC(=O)N2Cc1ccc(C(=O)O)cc1 [Cmpd 136]	–	0.176 µM
N=C(N)NCCCCCCc1ccc2c(c1)C(=O)N(CCC(=O)O)CC(=O)N2Cc1ccc(NC(=O)CCNC(=N)N)cc1 [Cmpd 119]	–	0.013 µM
NCCCCCCc1ccc2c(c1)C(=O)N(CCC(=O)O)CC(=O)N2CCCCCN [Cmpd 125]	–	0.064 µM
N=C(N)NCCCC#Cc1ccc2c(c1)C(=O)N(CCC(=O)O)CCC2 [Cmpd 154, 2-(2-carboxyethyl)-8-(5-guanidinopentynyl)-2,3,4,5-tetrahydro-1H-2-benzazepin-1-one trifluoroacetate]	–	20 µM
CN1C(=O)CN(CCC(=O)O)C(=O)c2cc3c(cc21)CCC(CCCNC(=N)N)C3 (stereo not shown) [Cmpd 142]	–	0.068 µM
N=C(N)NCCCCCCc1ccc2c(c1)C(=O)N(CCC(=O)O)CC(=O)N2Cc1ccc(C(F)(F)F)cc1 [Cmpd 89, 1-(p-trifluoromethylbenzyl)-4-(2-carboxyethyl)-7-(6-guanidinohexyl)-3,4-dihydro-1H-1,4-benzodiazepine-2,5-dione trifluoroacetate]	7.33	–
N=C(N)NCCCC#Cc1ccc2c(c1)C(=O)N(CCC(=O)O)CC(=O)N2 [Cmpd 32]	6.60	–
CN1C(=O)C2CCC(CC(=O)O)N2C(=O)c2cc(CCCN)ccc21 (stereo not shown) [Cmpd 17]	< 4.00	–
CN1C(=O)CN(CCC(=O)O)C(=O)c2cc(CCc3ccc(CN)cc3)ccc21 [Cmpd 45]	7.07	–
N=C(N)NCCCCCCc1ccc2c(c1)C(=O)N(CCC(=O)O)CC(=O)N2Cc1ccc(C(=O)O)cc1 [Cmpd 134]	–	0.019 µM
CN1C(=O)CN(CCC(=O)O)C(=O)c2cc3cc(CCCCNC(=N)N)ccc3cc21 [Cmpd 140]	–	0.069 µM
NCCCCCCc1ccc2c(c1)C(=O)N(CCC(=O)O)CC(=O)N2Cc1ccc(C(F)(F)F)cc1 [Cmpd 90, 1-(p-trifluoromethylbenzyl)-4-(2-carboxyethyl)-7-(6-aminohexyl)-3,4-dihydro-1H-1,4-benzodiazepine-2,5-dione trifluoroacetate]	8.30	–
CN1C(=O)CN(CCC(=O)O)C(=O)c2cc(C#CCCN)ccc21 [Cmpd 21]	5.22	–
CN1C(=O)CN(C(CC(=O)O)c2ccccc2)C(=O)c2cc(CCCCCCN)ccc21 (stereo not shown) [Cmpd 51]	6.70	–
CC1C(=O)N(C)c2ccc(CCCCNC(=N)N)cc2C(=O)N1CCC(=O)O (stereo not shown) [Cmpd 24]	4.00	–
N=C(N)NCCCCCCc1ccc2c(c1)C(=O)N(CCC(=O)O)CC(=O)N2Cc1ccc2ccccc2c1 [Cmpd 86, 1-(2-napthyl)methyl-4-(2-carboxyethyl)-7-(6-guanidinohexyl)-3,4-dihydro-1H-1,4-benzodiazepine-2,5-dione trifluoroacetate]	7.26	–
NCCCCCCc1ccc2c(c1)C(=O)N(CCC(=O)O)CC(=O)N2Cc1cccc(CCCCN)c1 [Cmpd 120]	–	0.024 µM
NCCCC#Cc1ccc2c(c1)C(=O)N(CCC(=O)O)CCO2 [Cmpd 144]	–	12 µM
NCCCCCc1ccc2c(c1)C(=O)N(CCC(=O)O)CCO2 [Cmpd 146]	–	80 µM
CN1C(=O)C2CCC(CC(=O)O)N2C(=O)c2cc(CCCN)ccc21 (stereo not shown) [Cmpd 15]	< 4.00	–
NCCCC#Cc1ccc2c(c1)C(=O)N(CCC(=O)O)CCC2 [Cmpd 153, 2-(2-carboxyethyl)-8-(5-aminopentynyl)-2,3,4,5-tetrahydro-1H-2-benzazepin-1-one trifluoroacetate]	–	> 100 µM
N=C(N)NCCCCCCc1ccc2c(c1)C(=O)N(CCC(=O)O)CC(=O)N2CCCCCNC(=N)N [Cmpd 126]	–	0.04 µM
